Laboratory results as given in patent US7071194B2, “Method for improving respiratory function and inhibiting muscular degeneration” (priority 2000, dated 2006).

Tests used:
Format in all cases: in vivo, rat
T8 SCI rats [1] = experiment: Respiratory function by head-out plethysmograph in conscious rats after T8 contusion SCI; details: for Te (expiratory time) / Ti (inspiratory time) / Tv (tidal volume) / Ve (minute ventilation) / f (respiratory rate): 24 hours post SCI, baseline (room air), rats 360-390 g
Protocol: Female Sprague-Dawley rats (250–280 g and 360–390 g; Taconic, Germantown, N.Y.) were anesthetized with 4% chloral hydrate (360 mg/kg, i.p.). An incomplete spinal courd contusion injury was produced at T8 with a weight drop device (10 g×2.5 cm) as previously described (Wrathall et al., 1985). After SCI, manual expression of bladders was performed twice daily until a reflex bladder was established. Animal care also included housing the rats in pairs to reduce isolation-induced stress, maintaining ambient temperature at 22–25° C., and using highly absorbent bedding. No prophylactic antibiotics were given.
(§1) Experiments were conducted in unanesthetized, awake, spontaneously breathing rats at 24 hours prior to SCI, at 24 hours p.i. and weekly afterwards at 1,2,3, and 4 weeks p.i. (1) Acclimatization of the Animals. […] Animals were placed in the body cylinder of the plethysmograph (FIG. 1a) for 60 minutes per day for at least 5 days. […] (2) Non-Invasive Measurements of Respiratory Rate, Tidal Volume and Minute Ventilation. Non-invasive measurements of respiratory function in conscious rats were performed with a restrained head-out plethysmograph specially designed for rodents (BUXCO Electronics, Inc., Sharon, Conn.) (FIG. 1a). The plethymograph apparatus has a neck seal that prevents leakage of air from between the animal's neck and the plethymograph opening. Displacement of the thoracic wall produced by the animal's respiratory movements causes changes in the cylinder pressure, which results in air flowing across a pneumotachograph located on the wall of the cylinder. The pressure drop across the pneumotachograph is measured with a pressure transducer and is proportional to the flow. This signal is amplified and integrated into volume. From measurements of volume and flow, a computer and appropriate software provides respiratory parameters, such as respiratory rate (f), tidal volume (Vt), minute ventilation (Ve), peak inspiratory flow, peak expiratory flow, inspiratory time (Ti), expiratory time (Te), and accumulated volume. An additional opening on the wall of the box allows volume calibration by injecting and removing air from the box with a calibrated syringe.
(§2) The noise level in the laboratory was kept to a minimum in order not to startle the animals. Further, the animals were visually isolated from the investigators by means of a chamber made of an opaque material that surrounded and covered the front-end of the body plethysmograph (FIG. 1b). Baseline recordings lasted for 4 minutes. (3) Measurement of Ventilatory Response to Carbon Dioxide. For measurement of the ventilatory response to CO2, animals were exposed to air containing 7% CO2. The animals breathed from a funnel fixed in the front wall of a chamber made of an opaque material (FIG. 1b). The animals were exposed to the gas mixture containing 7% CO2 (mixed with 60% O2 and 33% N2) for 5 minutes with recording of respiratory activity for another 2 minutes (a total recording duration of 7 minutes).
(§3) The 5HT1A receptor antagonist, p-MPPI (RBI, Natick, Mass.) was also dissolved in 0.9% saline and given i.p. in a dose of 3 mg/kg (pH 7.4 and final volume of 0.5 ml). […] Vehicle solution (VEH) was 0.9% saline and also injected at i.p. (pH 7.4; volume: 0.5 ml/rat).
Baseline respiratory function was measured under room air ventilation and after the animal was stabilized inside a boy cylinder (FIGS. 1a and b) for 30 minutes at each time point prior to SCI and after injury. Immediately following the evaluation of baseline respiration, the animals were let to breathe air containing 7% CO2 for 7 minutes to monitor their ventilatory response to CO2 stimulus (Teng et al., 1998a and 1999).

T8 SCI rats [2] = experiment: as above; details: p-MPPI 2 mg/kg i.p., dose titration experiments
normal conscious rats = experiment: Respiratory function by head-out plethysmograph in normal conscious rats; details: p-MPPI 3 mg/kg i.p., n=3
Protocol: as §1, §2, §3

[3] = 24 hours p.i., p-MPPI 3 mg/kg i.p. 20 minutes before 8-OH-DPAT
[4] = 3 & 4 min post p-MPPI 3 mg/kg i.p.
[5] = 19 & 20 min post p-MPPI 3 mg/kg i.p.

For COc1ccccc1N1CCN(CCN(C(=O)c2ccc(I)cc2)c2ccccn2)CC1 [p-MPPI, 4-(2′-methoxyphenyl)-1-[2′-[N-(2″-pyridinyl)-p-iodobenzamido]ethyl]piperazine], the “effect of pre-treatment on 8-OH-DPAT effects on respiration” value (T8 SCI rats [1]; [3]) was “significantly suppressed”, the “effect of pre-treatment on 8-OH-DPAT stimulation of ventilatory response to 7% CO2” value (T8 SCI rats [1]; [3]) was “significantly blocked” and the “Te (expiratory time)” value (T8 SCI rats [1]; [4]) was 0.28 ± 0.02↓. For the same molecule, the “Ti (inspiratory time)” value (T8 SCI rats [1]; [4]) was 0.33 ± 0.01, the “Tv (tidal volume)” value (T8 SCI rats [1]; [4]) was 0.75 ± 0.08↓ ml and the “Ve (minute ventilation)” value (T8 SCI rats [1]; [4]) was 76.9 ± 4.6↓ ml/min. The “f (respiratory rate)” value (T8 SCI rats [1]; [4]) was 103.2 ± 5.4↑ breaths/min, the “Te (expiratory time)” value (T8 SCI rats [1]; [5]) was 0.54 ± 0.10 and the “Ti (inspiratory time)” value (T8 SCI rats [1]; [5]) was 0.28 ± 0.04. For the same molecule, the “Tv (tidal volume)” value (T8 SCI rats [1]; [5]) was 0.77 ± 0.08↓ ml, the “Ve (minute ventilation)” value (T8 SCI rats [1]; [5]) was 57.8 ± 4.1↓ ml/min and the “f (respiratory rate)” value (T8 SCI rats [1]; [5]) was 76.2 ± 7.7 breaths/min. The “block of stimulating effects of 8-OH-DPAT on respiratory function” value (T8 SCI rats [2]) was “substantially block” and the “effect of p-MPPI per se on respiratory function” value (normal conscious rats) was “No significant impacts”.
